Counter-ions that a name gives are not always drawn. Like-named read-outs stand apart in the source and are kept apart here.
Key:
[1] = tested on: chronic obstructive pulmonary disease; details: 1500 mg/d, 12 months; cited from earlier work
rat COPD model [2] = test: Rat COPD model: inflammation indexes (TNF-α, IL-8, IL-6); type: in vivo; details: x ± SD
Description: (§1) 1.1 Preparation of Rat COPD Models
(§2) A method of establishing a rat COPD model by fumigation plus endotoxin lipopolysaccharide (LPS) endotracheal drop, which is commonly used at home and abroad at present was adopted. The period is 3 months (90 days). Specific method: on the 1st, the 15th, the 29th, the 43rd, the 57th, the 71st and the 85th days of the test, the rats were anesthetized with ethylether, the roots of tongues of the rats were pulled out, and LPS (200 ug/200 ul) was dripped through tracheas by bend gavage needle heads. The rats of the normal group were dripped with physiological saline of equal amount by the same method, and weren't fumigated. The rats of the other five groups were fumigated in a self-made fumigation bin. One side of the fumigation bin was externally connected with a negative pressure pump, and the top thereof was connected with a port for inserting cigarettes. With the negative press pump turned on, the cigarettes were lit, and the smoke of the cigarettes was absorbed into the fumigation bin. In order to prevent the animals from death caused by anoxia, 12 cigarettes were lit every time, and the lid of the fumigation bin was opened 20 min after fumigation for letting in fresh air. The operation was performed 1 h/3 times/day, with the LPS (200 ug/200 ul) being dripped through the tracheas by bend gavage needle heads.
(§3) 1.2 Pharmacological Intervention
(§4) The test was 90 days long. The pharmacological intervention was started from the 15th day, the rats of the positive group were perfused with carbocisteine, the rats of the low, medium and high test groups were perfused with different doses of test medicines, and the rats of the model group and the normal group were perfused with physiological saline of equal amount.
(§5) 1.3 Indexes Determination
(§6) Blood was taken from the orbit of each rat on the second day after the test was over, serum was separated, a complete stomach was cut and washed, lung tissue was preserved, the stomach and the right upper lung were left for pathobiology test, after the rest of the lung was subjected to lung tissue homogenate, the indexes of oxidization and antioxidation, the contents of lipid peroxide (LPO), malondialdehyde (MDA) and reduced glutathione (GSH), the activity of superoxide dismutase (SOD) and the concentration of inflammatory medium TNF-α, IL-8 and IL-6 were detected.

[3] = pH value of 1% solution/suspension by pH meter; type: physicochemical; details: n=6
Excerpt: (§7) In a preferred embodiment of the present invention, the S-(carboxymethyl)-L-cysteine ammonium salt monohydrate crystalline compound is a soluble double salt formed by the acidity of the carboxyl thereof and the alkalinity of the aqueous ammonia. […] In addition, the medicine, after being absorbed by the body, can be hydrolysed into S-(carboxymethyl)-L-cysteine and ammonium chloride with the effect of gastric acid, which can not only reduce the irritation of S-(carboxymethyl)-L-cysteine to the gastrointestinal tract, but also neutralize the excessive gastric acid. After the S-(carboxymethyl)-L-cysteine ammonium salt monohydrate crystal is hydrolysed, the S-(carboxymethyl)-L-cysteine in the body continues giving play to pharmacological effects thereof. At the same time, the ammonium chloride obtained from hydrolysis has chemical irritation to the mucous membrane, which can reflectively increase the amount of sputum to easily remove the sputum, and is conducive to removing a small amount of sputum which is difficult to be coughed out, thereby enhancing the sputum-resolving effect of the S-(carboxymethyl)-L-cysteine, and improving the curative effect. The S-(carboxymethyl)-L-cysteine ammonium salt is safe, has small side effect, and can be used for patients suffering from chronic obstructive pulmonary disease and the like to take for a long time.

[4] = tested on: patients suffering from COPD; details: 142 patients; 1500 mg/d, 12 months; cited from earlier work
rat COPD model [5] = test: Rat COPD model: oxidization indexes (LPO, MDA); type: in vivo; details: x ± SD
Description: as §1, §2, §3, §4, §5, §6

Water solubility = type: physicochemical
Excerpt: as §7

gastric mucosa of rats = test: Rat COPD model: pathological changes of stomachs; type: in vivo; details: perfused from the 15th day of the 90 day test
Description: A method of establishing a rat COPD model by fumigation plus endotoxin lipopolysaccharide (LPS) endotracheal drop, which is commonly used at home and abroad at present was adopted. The period is 3 months (90 days). Specific method: on the 1st, the 15th, the 29th, the 43rd, the 57th, the 71st and the 85th days of the test, the rats were anesthetized with ethylether, the roots of tongues of the rats were pulled out, and LPS (200 ug/200 ul) was dripped through tracheas by bend gavage needle heads. The rats of the normal group were dripped with physiological saline of equal amount by the same method, and weren't fumigated. The rats of the other five groups were fumigated in a self-made fumigation bin. […]
as §6

rat COPD model [6] = test: Rat COPD model: antioxidation indexes (GSH, SOD); type: in vivo; details: x ± SD
Description: as §1, §2, §3, §4, §5, §6

[7] = tested on: patients suffering from COPD; details: 1500 mg/d, 12 months; cited from earlier work
[8] = Storage at room temperature (character, moisture absorption); type: physicochemical; details: stored for a period of time at room temperature
Excerpt: The S-(carboxymethyl)-L-cysteine ammonium salt monohydrate crystals of the present invention have a relatively uniform particle size distribution.

[9] = Solubility in several solvents (25° C.); type: physicochemical

N[C@@H](CSCC(=O)O)C(=O)O [carbocisteine, S-(carboxymethyl)-L-cysteine, reference compound]
annual acute morbidity per person reduced by [1]: 24.5% | IL-6 Lung tissue (rat COPD model [2]; positive group): 14.24 ± 6.26 pg/mL | IL-6 Serum (rat COPD model [2]; positive group): 8.13 ± 2.87 pg/mL | IL-8 Lung tissue (rat COPD model [2]; positive group): 10.91 ± 2.30 pg/mL | IL-8 Serum (rat COPD model [2]; positive group): 7.87 ± 3.08 pg/mL | TNF-α Lung tissue (rat COPD model [2]; positive group): 25.17 ± 8.28 pg/mL | TNF-α Serum (rat COPD model [2]; positive group): 18.37 ± 4.55 pg/mL | pH ([3]; 1% suspension per Chinese Pharmacopoeia (2010 Edition)): 2.93±0.20 | prevention of acute COPD [4]: prevented from acute COPD | LPO Lung tissue (rat COPD model [5]; positive group): 17.44 ± 2.43 nmol/mL | LPO Serum (rat COPD model [5]; positive group): 5.12 ± 1.09 nmol/mL | MDA Lung tissue (rat COPD model [5]; positive group): 4.76 ± 0.70 µmol/mL | MDA Serum (rat COPD model [5]; positive group): 7.34 ± 2.19 µmol/mL | water solubility (Water solubility): poorer water solubility | Pathological changes of stomachs / irritation to the gastrointestinal tract (gastric mucosa of rats): mild irritations such as mild hyperaemia and edema, and larger inflammatory cell infiltration | Pathological changes of stomachs / irritation to the gastrointestinal tract (gastric mucosa of rats; listed as positive group): mild edema and hyperemia and serious inflammatory cell infiltration in the gastric mucosa layers | GSH Lung tissue (rat COPD model [6]; positive group): 107.26 ± 23.52 µmol/L | GSH Serum (rat COPD model [6]; positive group): 132.31 ± 24.04 µmol/L | SOD Lung tissue (rat COPD model [6]; positive group): 62.28 ± 15.12 U/mL | SOD Serum (rat COPD model [6]; positive group): 96.16 ± 23.03 U/mL | frequency of catching colds and acute exacerbation of COPD [7]: the frequency of catching colds is reduced and the acute exacerbation of COPD is relieved

N[C@@H](CSCC(=O)O)C(=O)O [L-ammonium, S-(carboxymethyl)-L-cysteine ammonium salt monohydrate]
IL-6 Lung tissue (rat COPD model [2]; high dose group): 9.28 ± 4.49 pg/mL | IL-6 Serum (rat COPD model [2]; high dose group): 5.83 ± 1.51 pg/mL | IL-8 Lung tissue (rat COPD model [2]; high dose group): 8.17 ± 1.06 pg/mL | IL-8 Serum (rat COPD model [2]; high dose group): 5.36 ± 1.51 pg/mL | TNF-α Lung tissue (rat COPD model [2]; high dose group): 15.15 ± 4.20 pg/mL | TNF-α Serum (rat COPD model [2]; high dose group): 13.02 ± 5.32 pg/mL | IL-6 Lung tissue (rat COPD model [2]; low dose group): 14.72 ± 5.51 pg/mL | IL-6 Serum (rat COPD model [2]; low dose group): 7.02 ± 3.30 pg/mL | IL-8 Lung tissue (rat COPD model [2]; low dose group): 9.97 ± 1.24 pg/mL | IL-8 Serum (rat COPD model [2]; low dose group): 7.90 ± 2.16 pg/mL | TNF-α Lung tissue (rat COPD model [2]; low dose group): 20.60 ± 9.60 pg/mL | TNF-α Serum (rat COPD model [2]; low dose group): 17.98 ± 3.94 pg/mL | IL-6 Lung tissue (rat COPD model [2]; medium dose group): 12.91 ± 2.47 pg/mL | IL-6 Serum (rat COPD model [2]; medium dose group): 6.24 ± 2.12 pg/mL | IL-8 Lung tissue (rat COPD model [2]; medium dose group): 8.66 ± 2.54 pg/mL | IL-8 Serum (rat COPD model [2]; medium dose group): 6.30 ± 2.17 pg/mL | TNF-α Lung tissue (rat COPD model [2]; medium dose group): 19.98 ± 8.78 pg/mL | TNF-α Serum (rat COPD model [2]; medium dose group): 15.11 ± 4.38 pg/mL | pH value ([3]; 1% compound, pH meter): 6.60±0.36 | LPO Lung tissue (rat COPD model [5]; high dose group): 13.51 ± 1.66 nmol/mL | LPO Serum (rat COPD model [5]; high dose group): 3.22 ± 0.85 nmol/mL | MDA Lung tissue (rat COPD model [5]; high dose group): 3.68 ± 0.87 µmol/mL | MDA Serum (rat COPD model [5]; high dose group): 5.88 ± 1.26 µmol/mL | LPO Lung tissue (rat COPD model [5]; low dose group): 16.24 ± 2.32 nmol/mL | LPO Serum (rat COPD model [5]; low dose group): 4.75 ± 1.30 nmol/mL | MDA Lung tissue (rat COPD model [5]; low dose group): 4.03 ± 1.27 µmol/mL | MDA Serum (rat COPD model [5]; low dose group): 7.28 ± 1.33 µmol/mL | LPO Lung tissue (rat COPD model [5]; medium dose group): 15.58 ± 2.73 nmol/mL | LPO Serum (rat COPD model [5]; medium dose group): 3.77 ± 1.15 nmol/mL | MDA Lung tissue (rat COPD model [5]; medium dose group): 3.88 ± 0.59 µmol/mL | MDA Serum (rat COPD model [5]; medium dose group): 6.20 ± 3.23 µmol/mL | water solubility (Water solubility; listed as S-(carboxymethyl)-L-cysteine ammonium salt monohydrate crystal, ammonium salt monohydrate): extremely easily soluble in water | absorption of moisture [8]: insusceptible to absorption of moisture | character changes after storage [8]: no obvious character changes | GSH Lung tissue (rat COPD model [6]; high dose group): 141.69 ± 28.40 µmol/L | GSH Serum (rat COPD model [6]; high dose group): 232.93 ± 40.49 µmol/L | SOD Lung tissue (rat COPD model [6]; high dose group): 77.56 ± 18.09 U/mL | SOD Serum (rat COPD model [6]; high dose group): 140.69 ± 32.13 U/mL | GSH Lung tissue (rat COPD model [6]; low dose group): 113.59 ± 24.32 µmol/L | GSH Serum (rat COPD model [6]; low dose group): 140.64 ± 19.66 µmol/L | SOD Lung tissue (rat COPD model [6]; low dose group): 60.38 ± 16.04 U/mL | SOD Serum (rat COPD model [6]; low dose group): 90.80 ± 15.13 U/mL | GSH Lung tissue (rat COPD model [6]; medium dose group): 124.19 ± 30.78 µmol/L | GSH Serum (rat COPD model [6]; medium dose group): 175.61 ± 31.11 µmol/L | SOD Lung tissue (rat COPD model [6]; medium dose group): 70.71 ± 11.16 U/mL | SOD Serum (rat COPD model [6]; medium dose group): 102.98 ± 23.26 U/mL | Solubility ([9]; Absolute ethyl alcohol): Very slightly soluble | Solubility ([9]; Acetone): Very slightly soluble | Solubility ([9]; Acetonitrile): Very slightly soluble | Solubility ([9]; Isopropanol): Very slightly soluble | Solubility ([9]; Methanol): Very slightly soluble | Solubility ([9]; N,N-Dimethylformamide): Very slightly soluble
